Earlier results on four molecules are cited in patent US5843891A, “Pharmaceutical acceptable compositions containing an alcohol and a hydrophobic drug” (priority 1993, dated 1998).

The structures appear in SMILES notation.

The conditions of the data set: in water at 20° C.

With `CCCCCCCCCCO` [1-decyl alcohol], the solubility in water result is recorded as “essentially insoluble”. Take `CCCCCCCCO` [1-octyl alcohol]: the solubility in water is 0.05 g per 100 g. Regarding `CCCCCCO` [Example 1-hexyl, 1-hexyl], the solubility in water is given as 0.6 g per 100 g. As for `CCO` [ethyl alcohol], the solubility in water result was “infinitely soluble”.
